According to patent publication US20230114728A1 (Venatorx Pharmaceuticals, Inc., priority 2019, published 2023):
Converted amounts (≈) assume the structure as drawn.

How the values were obtained:
[1] = target: T1, E. coli K12 PBP3 (Escherichia coli, UniProt P0AD68); assay: biochemical; format: binding
T1 construct: made in house
In short: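 A. baumannii PBP2 (2.5 μM) and PBP3 (0.2 μM) were run in 25 mM Tris pH 8.0 buffer with Tween 20; E. coli PBP3 (1.5 μM) and N. gonorrhoeae PBP2 ([…]) in 50 mM Hepes pH 8.0 buffer.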

[2] = test system: N. gonorrhoeae WHO Z; assay: Liquid broth MIC in Fastidious broth; format: cell-based; conditions: Neisseria gonorrhoeae, read-out: Minimum Inhibitory Concentration, N. gonorrhoeae WHO Z
In short: (§1)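 Mosaic PBP2 producers; colonies from 24 h chocolate agar, saline suspension, OD600. Fastidious broth, 2-fold dilutions, 5×10^5 CFU/mL. ~24 h, 36 °C, 5% CO2; visual MIC, <10% growth cutoff.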

[3] = test system: N. gonorrhoeae ATCC 49226; assay: Liquid broth MIC in Fastidious broth; format: cell-based; conditions: Neisseria gonorrhoeae, ATCC49226; N. gonorrhoeae strain ATCC 49226; Fastidious broth; read-out: Minimum Inhibitory Concentration, N. gonorrhoeae ATCC 49226
In short: (§2)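 Colonies were swabbed from chocolate agar after 24 h growth and standardised by optical density at 600 nm. Compounds were serially diluted twofold in Fastidious broth, and bacteria added to give 5×10^5 CFU/mL. After about 24 h at 36 °C in 5% CO2, the lowest concentration allowing under 10% growth was taken as MIC.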

[4] = test system: N. gonorrhoeae WHO Q; assay: Liquid broth MIC in Fastidious broth; format: cell-based; conditions: Neisseria gonorrhoeae, read-out: Minimum Inhibitory Concentration, N. gonorrhoeae WHO Q
In short: as §1

[5] = test system: N. gonorrhoeae WHO K; assay: Liquid broth MIC in Fastidious broth; format: cell-based; conditions: Neisseria gonorrhoeae, read-out: Minimum Inhibitory Concentration, N. gonorrhoeae WHO K
In short: as §1

[6] = test system: N. gonorrhoeae H041; assay: Liquid broth MIC in Fastidious broth; format: cell-based; conditions: Neisseria gonorrhoeae, H041, read-out: Minimum Inhibitory Concentration, N. gonorrhoeae H041
In short: as §1

[7] = test system: N. gonorrhoeae WHO G; assay: Liquid broth MIC in Fastidious broth; format: cell-based; conditions: Neisseria gonorrhoeae; N. gonorrhoeae strain WHO G; Fastidious broth; read-out: Minimum Inhibitory Concentration, N. gonorrhoeae WHO G
In short: as §2

[8] = test system: N. gonorrhoeae FA1090; assay: Liquid broth MIC in Fastidious broth; format: cell-based; conditions: Neisseria gonorrhoeae; N. gonorrhoeae strain FA1090; Fastidious broth; read-out: Minimum Inhibitory Concentration, N. gonorrhoeae FA1090
In short: as §2

[9] = target: T2, P. aeruginosa PBP3 (Pseudomonas aeruginosa, UniProt G3XD46); assay: Bocillin-FL fluorescence polarization competition binding assay, P. aeruginosa PBP3; conditions: fluorescence polarization competition binding assay using Bocillin-FL
T2 construct: made in house
In short: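 Inhibitor competition with Bocillin-FL for P. aeruginosa PBP3 was followed by fluorescence polarization on a Cytation3 (BioTek) reader, using g-factor 0.96, 490 nm excitation and 520 nm emission. The enzyme was at 0.75 μM and the probe at 0.1 μM in Hepes/NaCl/glycerol buffer, 80 μl per well. FP was recorded immediately after probe addition for up to 60 minutes. Potency was expressed as EC50, the concentration that reduces bound probe by 50%.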

T2 sequence (G3XD46 whole entry): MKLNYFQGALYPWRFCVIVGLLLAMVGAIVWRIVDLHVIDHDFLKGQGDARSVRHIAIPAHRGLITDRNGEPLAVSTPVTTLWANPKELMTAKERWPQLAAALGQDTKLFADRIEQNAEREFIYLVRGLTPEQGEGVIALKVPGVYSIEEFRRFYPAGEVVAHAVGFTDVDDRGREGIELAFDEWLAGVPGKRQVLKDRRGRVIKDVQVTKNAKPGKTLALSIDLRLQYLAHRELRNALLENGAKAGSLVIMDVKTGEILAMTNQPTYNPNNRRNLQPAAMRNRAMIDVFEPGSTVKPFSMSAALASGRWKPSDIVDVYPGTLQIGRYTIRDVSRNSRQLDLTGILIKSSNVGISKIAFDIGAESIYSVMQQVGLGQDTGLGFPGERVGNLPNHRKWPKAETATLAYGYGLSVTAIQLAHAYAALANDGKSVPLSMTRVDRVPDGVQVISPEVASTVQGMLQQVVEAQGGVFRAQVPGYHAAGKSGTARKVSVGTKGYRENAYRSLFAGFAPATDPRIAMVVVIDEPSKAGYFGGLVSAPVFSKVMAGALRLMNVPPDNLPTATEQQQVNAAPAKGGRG
T1 sequence (P0AD68 1-577): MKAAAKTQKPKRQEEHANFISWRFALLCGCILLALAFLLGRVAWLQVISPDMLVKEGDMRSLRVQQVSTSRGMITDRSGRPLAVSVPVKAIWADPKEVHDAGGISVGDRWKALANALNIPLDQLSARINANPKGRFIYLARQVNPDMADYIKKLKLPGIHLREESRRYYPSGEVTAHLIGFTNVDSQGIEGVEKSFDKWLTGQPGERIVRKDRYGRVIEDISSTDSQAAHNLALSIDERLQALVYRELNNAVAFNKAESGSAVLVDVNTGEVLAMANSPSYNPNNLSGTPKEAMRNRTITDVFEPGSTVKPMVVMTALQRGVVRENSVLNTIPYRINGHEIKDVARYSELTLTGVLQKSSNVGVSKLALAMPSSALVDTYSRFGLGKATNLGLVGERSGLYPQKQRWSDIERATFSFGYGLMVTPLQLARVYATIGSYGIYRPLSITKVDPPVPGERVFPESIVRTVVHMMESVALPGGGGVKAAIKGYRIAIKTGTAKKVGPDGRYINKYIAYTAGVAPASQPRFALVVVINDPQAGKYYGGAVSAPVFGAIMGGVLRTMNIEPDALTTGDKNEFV

Row | SMILES | EC50 [1] [µM] | MIC [2] [µg/mL] | MIC [3] [µg/mL] | MIC [4] [µg/mL] | MIC [5] [µg/mL] | MIC [6] [µg/mL] | MIC [7] [µg/mL] | MIC [8] [µg/mL] | P. aeruginosa PBP3 Potency [9]
1 | NC1(CN2CCN(C(=O)NC(C(=O)N[C@H]3Cc4cccc(C(=O)O)c4OB3O)c3cccc(NS(N)(=O)=O)c3)C(=O)C2=O)CC1 (stereo partly drawn) [Example 120, (3R)-3-(2-(4-((1-aminocyclopropyl)methyl)-2,3-dioxopiperazine-1-carboxamido)-2-(3-(sulfamoylamino)phenyl)acetamido)-2-hydroxy-3,4-dihydro-2H-benzo[e][1,2]oxaborinine-8-carboxylic acid] | 30 to 500 | > 64 | > 64 | > 64 | > 64 | > 64 | > 64 | 4 to 8 (≈ 6.22 to 12.4 µM) | D (D represents a potency <10 μM)
2 | O=C(O)c1c(F)ccc2c1OB(O)[C@@H](NC(=O)C(NC(=O)N1CCN(CCF)C(=O)C1=O)c1c(F)cc(O)cc1F)C2 (stereo partly drawn) [Example 129, (3R)-3-(2-(2,6-difluoro-4-hydroxyphenyl)-2-(4-(2-fluoroethyl)-2,3-dioxopiperazine-1-carboxamido)acetamido)-7-fluoro-2-hydroxy-3,4-dihydro-2H-benzo[e][1,2]oxaborinine-8-carboxylic acid] | < 30 | 4 to 8 (≈ 6.71 to 13.4 µM) | 16 to 32 (≈ 26.8 to 53.7 µM) | 16 to 32 (≈ 26.8 to 53.7 µM) | 16 to 32 (≈ 26.8 to 53.7 µM) | 16 to 32 (≈ 26.8 to 53.7 µM) | 4 to 8 (≈ 6.71 to 13.4 µM) | 1 to 2 (≈ 1.68 to 3.35 µM) | D (D represents a potency <10 μM)
3 | CCN1CCN(C(=O)NC(C(=O)N[C@H]2Cc3ccc(F)c(C(=O)O)c3OB2O)c2c(F)cc(O)cc2F)C(=O)C1=O (stereo partly drawn) [Example 130, (3R)-3-(2-(2,6-difluoro-4-hydroxyphenyl)-2-(4-ethyl-2,3-dioxopiperazine-1-carboxamido)acetamido)-7-fluoro-2-hydroxy-3,4-dihydro-2H-benzo[e][1,2]oxaborinine-8-carboxylic acid] | < 30 | 4 to 8 (≈ 6.92 to 13.8 µM) | 4 to 8 (≈ 6.92 to 13.8 µM) | 16 to 32 (≈ 27.7 to 55.3 µM) | 16 to 32 (≈ 27.7 to 55.3 µM) | 16 to 32 (≈ 27.7 to 55.3 µM) | 4 to 8 (≈ 6.92 to 13.8 µM) | 1 to 2 (≈ 1.73 to 3.46 µM) | D (D represents a potency <10 μM)
4 | NS(=O)(=O)Nc1cccc(C(NC(=O)N2CCN(Cc3c(F)cc(O)c(O)c3Cl)C(=O)C2=O)C(=O)N[C@H]2Cc3cccc(C(=O)O)c3OB2O)c1 (stereo partly drawn) [Example 131, (3R)-3-(2-(4-(2-chloro-6-fluoro-3,4-dihydroxybenzyl)-2,3-dioxopiperazine-1-carboxamido)-2-(3-(sulfamoylamino)phenyl)acetamido)-2-hydroxy-3,4-dihydro-2H-benzo[e][1,2]oxaborinine-8-carboxylic acid] | < 30 | > 64 | > 64 | > 64 | > 64 | > 64 | > 64 | 16 to 32 (≈ 21.4 to 42.7 µM) | D (D represents a potency <10 μM)
5 | NS(=O)(=O)c1cc(O)cc(C(NC(=O)N2CCN(Cc3c(F)cc(O)c(O)c3Cl)C(=O)C2=O)C(=O)N[C@H]2Cc3cccc(C(=O)O)c3OB2O)c1 (stereo partly drawn) [Example 132, (3R)-3-(2-(4-(2-chloro-6-fluoro-3,4-dihydroxybenzyl)-2,3-dioxopiperazine-1-carboxamido)-2-(3-hydroxy-5-sulfamoylphenyl)acetamido)-2-hydroxy-3,4-dihydro-2H-benzo[e][1,2]oxaborinine-8-carboxylic acid] | 30 to 500 | > 64 | > 64 | > 64 | > 64 | > 64 | > 64 | 16 to 32 (≈ 21.3 to 42.7 µM) | D (D represents a potency <10 μM)
6 | CCN1CCN(C(=O)NC(C(=O)N[C@H]2Cc3cccc(C(=O)O)c3OB2O)c2cc(F)c(C(=O)O)cc2F)C(=O)C1=O (stereo partly drawn) [Example 137, (3R)-3-(2-(4-carboxy-2,5-difluorophenyl)-2-(4-ethyl-2,3-dioxopiperazine-1-carboxamido)acetamido)-2-hydroxy-3,4-dihydro-2H-benzo[e][1,2]oxaborinine-8-carboxylic acid] | < 30 | 4 to 8 (≈ 6.8 to 13.6 µM) | 1 to 2 (≈ 1.7 to 3.4 µM) | 4 to 8 (≈ 6.8 to 13.6 µM) | 4 to 8 (≈ 6.8 to 13.6 µM) | 16 to 32 (≈ 27.2 to 54.4 µM) | 1 to 2 (≈ 1.7 to 3.4 µM) | 0.25 to 0.5 (≈ 0.425 to 0.85 µM) | D (D represents a potency <10 μM)
7 | CCN1CCN(C(=O)NC(C(=O)N[C@H]2Cc3cccc(C(=O)O)c3OB2O)c2cc(Cl)c(C(=O)O)cc2F)C(=O)C1=O (stereo partly drawn) [Example 138, (3R)-3-(2-(4-carboxy-5-chloro-2-fluorophenyl)-2-(4-ethyl-2,3-dioxopiperazine-1-carboxamido)acetamido)-2-hydroxy-3,4-dihydro-2H-benzo[e][1,2]oxaborinine-8-carboxylic acid] | < 30 | 4 to 8 (≈ 6.61 to 13.2 µM) | 4 to 8 (≈ 6.61 to 13.2 µM) | 4 to 8 (≈ 6.61 to 13.2 µM) | 16 to 32 (≈ 26.5 to 52.9 µM) | 16 to 32 (≈ 26.5 to 52.9 µM) | 1 to 2 (≈ 1.65 to 3.31 µM) | < 0.125 | D (D represents a potency <10 μM)
8 | CCN1CCN(C(=O)NC(C(=O)N[C@H]2Cc3cccc(C(=O)O)c3OB2O)c2cc(F)c(C(=O)O)c(F)c2)C(=O)C1=O (stereo partly drawn) [Example 141, (3R)-3-(2-(4-carboxy-3,5-difluorophenyl)-2-(4-ethyl-2,3-dioxopiperazine-1-carboxamido)acetamido)-2-hydroxy-3,4-dihydro-2H-benzo[e][1,2]oxaborinine-8-carboxylic acid] | < 30 | 1 to 2 (≈ 1.7 to 3.4 µM) | 1 to 2 (≈ 1.7 to 3.4 µM) | 1 to 2 (≈ 1.7 to 3.4 µM) | 1 to 2 (≈ 1.7 to 3.4 µM) | 4 to 8 (≈ 6.8 to 13.6 µM) | 0.25 to 0.5 (≈ 0.425 to 0.85 µM) | < 0.125 | D (D represents a potency <10 μM)
9 | NCCN1CCN(C(=O)NC(C(=O)N[C@H]2Cc3cccc(C(=O)O)c3OB2O)c2ccc(C(=O)O)cc2O)C(=O)C1=O (stereo partly drawn) [Example 142, (3R)-3-(2-(4-(2-aminoethyl)-2,3-dioxopiperazine-1-carboxamido)-2-(4-carboxy-2-hydroxyphenyl)acetamido)-2-hydroxy-3,4-dihydro-2H-benzo[e][1,2]oxaborinine-8-carboxylic acid] | 30 to 500 | > 64 | 16 to 32 (≈ 27.4 to 54.9 µM) | > 64 | > 64 | > 64 | 4 to 8 (≈ 6.86 to 13.7 µM) | 4 to 8 (≈ 6.86 to 13.7 µM) | C (C represents a potency between 10 and 30 μM)
10 | CCN1CCN(C(=O)NC(C(=O)N[C@H]2Cc3cccc(C(=O)O)c3OB2O)c2ccc(C(=O)O)cc2F)C(=O)C1=O (stereo partly drawn) [Example 145, (3R)-3-(2-(4-carboxy-2-fluorophenyl)-2-(4-ethyl-2,3-dioxopiperazine-1-carboxamido)acetamido)-2-hydroxy-3,4-dihydro-2H-benzo[e][1,2]oxaborinine-8-carboxylic acid] | < 30 | 4 to 8 (≈ 7.01 to 14 µM) | 1 to 2 (≈ 1.75 to 3.51 µM) | 4 to 8 (≈ 7.01 to 14 µM) | 4 to 8 (≈ 7.01 to 14 µM) | 4 to 8 (≈ 7.01 to 14 µM) | 1 to 2 (≈ 1.75 to 3.51 µM) | < 0.125 | D (D represents a potency <10 μM)
